Experimental data taken from publication PMC11992225, “Antibacterial compounds against non-growing and intracellular bacteria” (npj Antimicrobials and Resistance, 2025).
In brackets after ≈: the same amount, converted by molar mass. Where two headings read alike, the source gives them in different places.

Columns and labels:
E. coli CFT073 (UPEC) = test: MIC, standard microdilution assay, growing UPEC; type: cell-based, Escherichia coli; conditions: E. coli, pH 7.4
Description: (§1) Minimal inhibitory concentrations (MICs) were determined using a standard microdilution assay protocol. CA-MHB medium buffered with 40 mM HEPES (pH 7.4) was used to determine the MICs for UPEC, P. aeruginosa, and S. aureus. […] MICs for UPEC were also determined in LPM buffered with 30 mM MES (pH 5.5). For S. flexneri, MICs were determined in tryptic soy broth (TSB). The assay was performed in triplicates.

P. aeruginosa DSM1117 = test: MIC, standard microdilution assay, growing P. aeruginosa; type: cell-based, Pseudomonas aeruginosa; conditions: P. aeruginosa, CA-MHB pH 7.4, read-out: MIC (μM) CA-MHB
Description: as §1

S. flexneri 5a M90T = test: MIC in tryptic soy broth, S. flexneri; type: cell-based, Shigella flexneri
Description: as §1

non-growing UPEC CFT073 [1] = test: Dilution-regrowth assay (screen, hit validation, dose-response) on stationary-phase UPEC; type: cell-based, Escherichia coli; conditions: for OD600 at 6hr, Mean: after dilution into drug-free medium; for EC50: E. coli, pH 7.4, regrowth delay of non-growing bacteria, 1:4 CA-MHB, 24 h treatment, OD600 6 h after 2500-fold dilution, read-out: EC50; for activity in the dilution-regrowth screen: non-growing UPEC, 20 μM
Description: The cultures were incubated for 24 h in non-baffled Erlenmeyer flasks at 37 °C with shaking at 200 rpm.
The high-throughput screening (HTS) procedure was based on the protocol by Hazan and colleagues[15] and conducted at the Chemical Biology Consortium Sweden (CBCS) screening facility. […] Each plate included eight wells with 200 nl of 10 mM gatifloxacin, finafloxacin, and kanamycin solutions, along with 8-wells containing 200 nl of DMSO as controls. After 24 h incubation,100 μl of the culture was dispensed into each well of the 384-well plates for screening at a final concentration of 20 μM. The plates were sealed with parafilm and incubated at 37 °C for 24 h in closed humidified boxes, with wet paper towels added to prevent evaporation. […] The plates were incubated at 37 °C for 6 h in humidified boxes, then OD600 was measured using a microplate reader.
For hit validation, bacteria were cultivated, and the dilution-regrowth assay was conducted following the same protocol used in the primary screen. Hit compounds were dispensed into 384-well plates using the Echo® (Labcyte) system, with 200, 100, or 50 nl of a 10 mM solution in DMSO added per well, yielding final screening concentrations of 20, 10, and 5 μM, respectively. OD600 values of regrowing samples were normalized to the mean OD600 of the drug-free control. The testing was conducted in two replicates.
For UPEC, dose–response analysis was conducted at the CBCS screening facility. Bacteria were cultivated, and the dilution-regrowth assay was performed according to the HTS protocol. Compounds were dispensed into 384-well plates using the Echo® (Labcyte) system, and regrowth was assessed by measuring OD600 after 6 h of incubation at 37 °C in humidified boxes. Three biological replicates were performed.
Statistical significance of the drug effects was assessed using a one-way ANOVA followed by Dunnett’s test, comparing each treatment to the drug-free control. Statistical significance of the differences in chemical characteristics between the hit compounds and the Prestwick library was assessed using a Mann–Whitney test. Statistical significance was set at P ≤ 0.05. A five-parameter logistic equation was used for asymmetric sigmoidal curve fitting and for EC50 and IC50 determination. The Venn diagram in Fig. 1F was prepared using BioVenn web application. Characteristics of the chemical and physical properties of Prestwick library compounds were obtained from Supplementary Table S1 from reference. Characteristics of the hit compounds not included in the Prestwick library were retrieved from the PubChem database.

non-growing UPEC CFT073 [2] = test: Dose-dependent killing analysis (CFU spot-plating) of stationary-phase UPEC; type: cell-based, Escherichia coli; conditions: E. coli in 1:4 CA-MHB (pH 7.4); for Δlog10(CFU/ml): average killing vs before treatment (8.977)
Description: To differentiate between these scenarios, we used CFU counting by agar plating to assess the bactericidal effect on non-growing bacteria. […] Conversely, if no significant reduction in CFU is observed, the regrowth delay is due to PAE without killing. […] Fluoroquinolones are known to cause PAE after treatment of growing bacterial cultures.
For survival analysis, bacteria were cultivated as described for the dose–response dilution-regrowth assay. Assays with UPEC were conducted at the CBCS screening facility using 96-well plates with a 200 μl sample volume, and compounds were dispensed using the Echo® (Labcyte) system. P. aeruginosa and S. aureus samples were treated according to the protocol used for the dilution-regrowth experiments. Treated samples were serially diluted 10-fold in PBS, and 10 μl drops were spot-plated onto rectangular LB agar plates using either a Beckman NXP robot (for UPEC) or an Integra VIAFLO96 electronic pipette (for P. aeruginosa and S. aureus). The LB agar plates were incubated overnight at 37 °C and scanned. Colonies were counted at the spots of the lowest dilution where individual colonies could be accurately distinguished. Each colony was manually marked on a separate image layer using the GNU Image Manipulation Program, and counted using NIST’s Integrated Colony Enumerator (NICE 1.4) software. The experiments were performed in three biological replicates.

S. aureus DSM2569 = test: MIC, standard microdilution assay, growing S. aureus; type: cell-based, Staphylococcus aureus; conditions: Staphylococcus aureus, DSM2569; S. aureus; CA-MHB pH 7.4; read-out: MIC (μM) CA-MHB
Description: as §1

## CCC[C@H](NC(=O)/C(C#N)=C/c1cccc(Br)n1)c1ccccc1 [Degrasyn]
E. coli CFT073 (UPEC); 1:4 diluted CA-MHB, read-out: MIC (μM) 1:4 CA-MHB
  MIC: >80 µM
E. coli CFT073 (UPEC); CA-MHB with 10 μg/ml efflux pump inhibitor PaβN
  MIC (μM) CA-MHB +PAβN: >80 µM
E. coli CFT073 (UPEC); CA-MHB, read-out: MIC (μM) CA-MHB
  MIC: >80 µM
P. aeruginosa DSM1117
  MIC: >80 µM
S. flexneri 5a M90T; S. flexneri, extracellular bacteria in TSB
  MIC (μM) TSB: >128 µM
non-growing UPEC CFT073 [1]; E. coli in 1:4 CA-MHB (pH 7.4), 0.25 μM
  OD600 at 6hr, Mean: 0.603
non-growing UPEC CFT073 [1]; E. coli in 1:4 CA-MHB (pH 7.4), 0.5 μM
  OD600 at 6hr, Mean: 0.604
non-growing UPEC CFT073 [1]; E. coli in 1:4 CA-MHB (pH 7.4), 1 μM
  OD600 at 6hr, Mean: 0.558
non-growing UPEC CFT073 [1]; E. coli in 1:4 CA-MHB (pH 7.4), 2.5 μM
  OD600 at 6hr, Mean: 0.295
non-growing UPEC CFT073 [1]; E. coli in 1:4 CA-MHB (pH 7.4), 5 μM
  OD600 at 6hr, Mean: 0.108
non-growing UPEC CFT073 [1]; E. coli in 1:4 CA-MHB (pH 7.4), 10 μM
  OD600 at 6hr, Mean: 0.069
non-growing UPEC CFT073 [1]; E. coli in 1:4 CA-MHB (pH 7.4), 30 μM
  OD600 at 6hr, Mean: 0.079
non-growing UPEC CFT073 [1]; E. coli in LPM (pH 5.5), 0.25 μM
  OD600 at 6hr, Mean: 0.554
non-growing UPEC CFT073 [1]; E. coli in LPM (pH 5.5), 0.5 μM
  OD600 at 6hr, Mean: 0.565
non-growing UPEC CFT073 [1]; E. coli in LPM (pH 5.5), 1 μM
  OD600 at 6hr, Mean: 0.575
non-growing UPEC CFT073 [1]; E. coli in LPM (pH 5.5), 2.5 μM
  OD600 at 6hr, Mean: 0.579
non-growing UPEC CFT073 [1]; E. coli in LPM (pH 5.5), 5 μM
  OD600 at 6hr, Mean: 0.583
non-growing UPEC CFT073 [1]; E. coli in LPM (pH 5.5), 10 μM
  OD600 at 6hr, Mean: 0.582
non-growing UPEC CFT073 [1]; E. coli in LPM (pH 5.5), 30 μM
  OD600 at 6hr, Mean: 0.588
non-growing UPEC CFT073 [1]
  EC50: 2.22 µM
non-growing UPEC CFT073 [2]; 0.25 μM
  Log10(CFU/ml), Replicate #1: 9.301 Log10(CFU/ml)
  Log10(CFU/ml), Replicate #2: 8.699 Log10(CFU/ml)
  Log10(CFU/ml), Replicate #3: 9.079 Log10(CFU/ml)
  Δlog10(CFU/ml): -0.049 log10(CFU/ml)
non-growing UPEC CFT073 [2]; 0.5 μM
  Log10(CFU/ml), Replicate #1: 9.279 Log10(CFU/ml)
  Log10(CFU/ml), Replicate #2: 8.505 Log10(CFU/ml)
  Log10(CFU/ml), Replicate #3: 8.602 Log10(CFU/ml)
  Δlog10(CFU/ml): 0.182 log10(CFU/ml)
non-growing UPEC CFT073 [2]; 1 μM
  Log10(CFU/ml), Replicate #1: 9.204 Log10(CFU/ml)
  Log10(CFU/ml), Replicate #2: 8.477 Log10(CFU/ml)
  Log10(CFU/ml), Replicate #3: 9.204 Log10(CFU/ml)
  Δlog10(CFU/ml): 0.016 log10(CFU/ml)
non-growing UPEC CFT073 [2]; 2.5 μM
  Log10(CFU/ml), Replicate #1: 9.204 Log10(CFU/ml)
  Log10(CFU/ml), Replicate #2: 8.845 Log10(CFU/ml)
  Log10(CFU/ml), Replicate #3: 8.301 Log10(CFU/ml)
  Δlog10(CFU/ml): 0.194 log10(CFU/ml)
non-growing UPEC CFT073 [2]; 5 μM
  Log10(CFU/ml), Replicate #1: 8.954 Log10(CFU/ml)
  Log10(CFU/ml), Replicate #2: 6.778 Log10(CFU/ml)
  Log10(CFU/ml), Replicate #3: 7.176 Log10(CFU/ml)
  Δlog10(CFU/ml): 1.341 log10(CFU/ml)
non-growing UPEC CFT073 [2]; 10 μM
  Log10(CFU/ml), Replicate #1: 6.623 Log10(CFU/ml)
  Log10(CFU/ml), Replicate #2: 6.699 Log10(CFU/ml)
  Log10(CFU/ml), Replicate #3: 6.532 Log10(CFU/ml)
  Δlog10(CFU/ml): 2.359 log10(CFU/ml)

## CC[C@H]1OC(=O)C[C@@H](O)[C@H](C)[C@@H](O[C@@H]2O[C@H](C)[C@@H](O[C@H]3C[C@@](C)(O)[C@@H](O)[C@H](C)O3)[C@H](N(C)C)[C@H]2O)[C@@H](CC=O)C[C@@H](C)C(=O)/C=C/C(C)=C/[C@@H]1CO[C@@H]1O[C@H](C)[C@@H](O)[C@@H](OC)[C@H]1OC [Tylosin]
E. coli CFT073 (UPEC); Escherichia coli, 1:4 diluted CA-MHB, read-out: MIC (μM) 1:4 CA-MHB
  MIC: 160 µM (≈ 147 µg/mL)
E. coli CFT073 (UPEC); Escherichia coli, CA-MHB, read-out: MIC (μM) CA-MHB
  MIC: 160 µM (≈ 147 µg/mL)
P. aeruginosa DSM1117; Pseudomonas aeruginosa, DSM1117
  MIC: > 160 µM
S. aureus DSM2569
  MIC: 1 µM (≈ 0.916 µg/mL)
S. flexneri 5a M90T; Shigella flexneri, 5AM90T, read-out: MIC (μM) TSB
  MIC: 128 µM (≈ 117 µg/mL)
non-growing UPEC CFT073 [1]; Escherichia coli
  EC50: 7.28 µM

## CC[C@H]1OC(=O)[C@H](C)C(=O)[C@H](C)[C@@H](O[C@@H]2O[C@H](C)C[C@H](N(C)C)[C@H]2O)[C@](C)(OC)C[C@@H](C)C(=O)[C@H](C)[C@H]2N(CCCCn3cnc(-c4cccnc4)c3)C(=O)O[C@]12C [telithromycin]
non-growing UPEC CFT073 [1]
  activity in the dilution-regrowth screen: no activity

## colistin
non-growing UPEC CFT073 [1]
  activity in the dilution-regrowth screen: not identified as hits
